Read-outs that look alike come from different tables or passages of the source.
Tests used:
T. congolense [1] = test: In vivo curative and preventive activity in infected and monthly re-infected mice; design: species or system souris femelles swiss (CD1); settings: for Nombre de souris avec une parasitemia positive: n=5; for activité curative et préventive (durée): dose 1 mg/kg
Procedure: La souche T. congolense est cultivée et les différents composés sont préparés selon les protocoles de culture et de préparation décrits pour les tests in vitro (Exemples 1 et 2).
Des parasites de la souche de T. congolense ont été initialement propagés dans des souris femelles swiss (CD1) âgées de 8 semaines (200 mg/kg). Ces souris sont ensuite infectés par voie intrapéritonéale avec 10^5 trypanosomes de souche T. congolense dans un volume final de 200 µl de tampon phosphate glucose (137 mM NaCl, 10 mM phosphate, […], pH 7,4, 1% glucose). Les souris sont alors traitées par les composés à tester 24 heures après l'infection (5 souris traités par composé à tester + un groupe témoin). Chaque composé testé est injecté par voie intrapéritonéale et à des concentrations de 1 et 0,1 mg/kg de poids corporel dans un volume final de 100 µl d'eau stérile. Les souris témoins non traitées reçoivent 100 µl d'eau stérile après infection. La parasitémie a été évaluée 2 fois par semaine au microscope à partir d'échantillons de sang prélevés sur la veine caudale. Afin d'évaluer la persistance des composés, les souris qui étaient parasite-négatives après un mois ont été ré-infectées avec 10^5 trypanosomes. La réinfection a été répétée après le deuxième et troisième mois à partir de l'infection initiale et du traitement si les souris infectées étaient toujours aparasitémiques (sans parasites dans le sang). La réinfection a été réalisée avec des parasites provenant de souris témoins infectées de manière chronique pour éviter une réponse immunitaire immédiate due à la présence d'anticorps homologues anti-VSG. Deux souris non-traitées (Témoin) ont été infectées à chaque infection et réinfection. Le traitement a été considéré inefficace quand plus de 2 souris sur 5 dans un groupe étaient parasite-positives.

T. congolense [2] = test: In vitro drug sensitivity test on cultured bloodstream forms, 48 h; format: cell-based; settings: for IC50: 48 h exposure, 34 °C; for activité trypanocide inférieure à celle des formulations commerciales: versus Veridium and Samorin, 48 h, up to about
Text: (§1) Les souches T. congolense et T. b. brucei (formes sanguines) ont été cultivées in vitro selon le protocole décrit par Baltz et al. (Embo. J. 1985, 4, 1273-1277) et Coustou et al. (PLOS Negl. Trop. Dis., 2010, 4, 618).
(§2) L'isométamidium a été synthétisé et a été purifié par HPLC (220 nm). L'analyse de sa structure a été confirmée par LC /MS et par RMN 1H et 13C et un degré de pureté de 99,7 % a été obtenu. L'isométamidium pur ainsi que les formulations commerciales Veridium® et Samorin® ont été dissous dans de l'eau distillée (10 mg / ml) et ont été conservés à -20°C avant utilisation.
(§3) Les trypanosomes sont ajoutés dans des plaques de culture cellulaire 96 puits incubées à 34 °C (T. congolense) ou à 37 °C (T. b. brucei) sous atmosphère de CO2 (4 %) pendant 4 heures avant l'ajout des composés qui ont été dilués en série 1/10^eme. 100 µl de chaque dilution ont été ensuite ajoutés à 100 µl de culture dans les puits (2 puits pour chaque dilution de 1 mg/ml jusqu'à 1.10^-19 mg/ml) puis le milieu est incubé à 34 °C (T. congolense) ou à 37 °C (T. b. brucei) sous atmosphère de CO2 (4 %) pendant 48 heures. Les IC50 (Concentration qui réduit de 50% la population parasitaire au bout de 48 heures de culture) ont été calculées en utilisant le logiciel de traitement de données Sigmaplot version 12.
(§4) Les souches T. congolense et T. b. brucei (formes sanguines), les différents composés et leur IC50 ont été, respectivement, cultivées in vitro, préparés et évaluées selon le protocole décrit dans l'exemple 1. Les puretés respectives pour chaque composé obtenu étaient de 97,6 % pour l'isomère bleu, 95,4% pour l'isomère rouge et 97,9 % pour le composé disubstitué.

T. b. brucei = test: as above; format: cell-based; settings: for IC50: 48 h exposure, 37 °C
Text: as §1, §2, §3, §4

T. congolense [3] = settings: mice, Brown et al. 1961; purity of compounds unsatisfactory; cited from earlier work
T. congolense [4] = settings: cattle, Finelle et al. 1963; cited from earlier work
[5] = Trypanosoma congolense, read-out: IC50
[6] = Trypanosoma brucei, read-out: IC50

Structure (SMILES): CC[n+]1c(-c2ccccc2)c2cc(N=NNc3cccc(C(=N)N)c3)ccc2c2ccc(N=NNc3cccc(C(=N)N)c3)cc21 [Composé disubstitué pur, 3,8-di-(3-m-amidinophenyltriazeno)-5-éthyl-6-phénylphénanthridium]
- Nombre de souris avec une parasitemia positive (T. congolense [1]; dose 0.1 mg/kg i.p., 1 mois): 5
- activité curative et préventive (durée) (T. congolense [1]): pendant au moins trois mois
- Nombre de souris avec une parasitemia positive (T. congolense [1]; dose 1 mg/kg i.p., 1 mois): 0
- Nombre de souris avec une parasitemia positive (T. congolense [1]; dose 1 mg/kg i.p., 2 mois): 0
- Nombre de souris avec une parasitemia positive (T. congolense [1]; dose 1 mg/kg i.p., 3 mois, listed as Composé disubstitué, 1 mg/kg): 1
- Nombre de souris avec une parasitemia positive (T. congolense [1]; dose 1 mg/kg i.p., 3 mois, listed as composé disubstitué, 1 mg/kg): seule une souris est parasite-positive
- Nombre de souris avec une parasitemia positive (T. congolense [1]; dose 1 mg/kg i.p., 4 mois, listed as Composé disubstitué, 1 mg/kg): 4
- Nombre de souris avec une parasitemia positive (T. congolense [1]; dose 1 mg/kg i.p., 4 mois, listed as composé disubstitué, 1 mg/kg): la seule souris parasite-négative
- IC50 (T. congolense [2]): 66,27 ± 14,37 ng/ml
- IC50 (T. congolense [2]; [5]): 0.0663 µg/mL
- IC50 (T. b. brucei): >1 µg/mL
- IC50 (T. b. brucei; [6]): > 1 µg/mL
- activité trypanocide in-vivo (T. congolense [3]): activité prophylactique et non curative
- protection / activité curative (T. congolense [4]): permettait de protéger les bovins contre T. congolense, mais était dépourvu de toute activité curative

Structure (SMILES): CC[n+]1c(-c2ccccc2)c2c(N=Nc3cccc(C(=N)N)c3)c(N)ccc2c2ccc(N)cc21 [Isomère bleu, 7-(m-amidinophényldiazo)-3,8-diamino-5-éthyl-6-phényl phénanthridinium, reference compound]
- protection des souris d'une infection (durée) (T. congolense [1]; dose 0,1 mg/kg): ne sont actifs que pendant un mois
- Nombre de souris avec une parasitemia positive (T. congolense [1]; dose 0.1 mg/kg i.p., 1 mois): 0
- Nombre de souris avec une parasitemia positive (T. congolense [1]; dose 0.1 mg/kg i.p., 2 mois): 5
- activité curative et préventive (durée) (T. congolense [1]): n'est plus significative au bout de deux mois
- Nombre de souris avec une parasitemia positive (T. congolense [1]; dose 1 mg/kg i.p., 1 mois): 0
- Nombre de souris avec une parasitemia positive (T. congolense [1]; dose 1 mg/kg i.p., 2 mois): 4
- IC50 (T. congolense [2]): 7,11 ± 0,76 ng/ml
- IC50 (T. congolense [2]; [5]): 0.00711 µg/mL
- activité trypanocide inférieure à celle des formulations commerciales (T. congolense [2]): ≤ 10 fois
- IC50 (T. b. brucei): 12,01 ± 2,22 ng/ml
- IC50 (T. b. brucei; [6]): 0.012 µg/mL
- activité trypanocide in-vivo (T. congolense [3]): activité trypanocide curative

Structure (SMILES): CC[n+]1c(-c2ccccc2)c2cc(N)ccc2c2ccc(N=NNc3cccc(C(=N)N)c3)cc21 [Isomère rouge, 3-(3-m-amidinophényl-2-triazeno)-8-amino-5-éthyl-6-phénylphénanthridinium]
- Nombre de souris avec une parasitemia positive (T. congolense [1]; dose 0.1 mg/kg i.p., 1 mois): 0
- Nombre de souris avec une parasitemia positive (T. congolense [1]; dose 0.1 mg/kg i.p., 2 mois): 5
- Nombre de souris avec une parasitemia positive (T. congolense [1]; dose 1 mg/kg i.p., 1 mois): 0
- Nombre de souris avec une parasitemia positive (T. congolense [1]; dose 1 mg/kg i.p., 2 mois): 1
- Nombre de souris avec une parasitemia positive (T. congolense [1]; dose 1 mg/kg i.p., 3 mois): 5
- IC50 (T. congolense [2]): 3,63 ± 0,55 ng/ml
- IC50 (T. congolense [2]; [5]): 0.00363 µg/mL
- activité trypanocide inférieure à celle des formulations commerciales (T. congolense [2]): ≤ 10 fois
- IC50 (T. b. brucei): 202,15 ± 62,92 ng/ml
- IC50 (T. b. brucei; [6]): 0.202 µg/mL
- activité trypanocide inférieure à celles des compositions commerciales (T. b. brucei; versus commercial compositions, 48 h): ~20 fois

Structure (SMILES): CC[n+]1c(-c2ccccc2)c2cc(N/N=N/c3cccc(C(=N)N)c3)ccc2c2ccc(N)cc21 [Isométamidium pur, 8-(3-m-amidinophényl-2-triazeno)-3-amino-5-éthyl-6-phénylphénanthridinium]
- Nombre de souris avec une parasitemia positive (T. congolense [1]; dose 0.1 mg/kg i.p., 1 mois): 0
- Nombre de souris avec une parasitemia positive (T. congolense [1]; dose 0.1 mg/kg i.p., 2 mois): 0
- Nombre de souris avec une parasitemia positive (T. congolense [1]; dose 0.1 mg/kg i.p., 3 mois): 0
- Nombre de souris avec une parasitemia positive (T. congolense [1]; dose 0.1 mg/kg i.p., 4 mois): 5
- Nombre de souris avec une parasitemia positive (T. congolense [1]; dose 1 mg/kg i.p., 1 mois): 0
- Nombre de souris avec une parasitemia positive (T. congolense [1]; dose 1 mg/kg i.p., 2 mois): 0
- Nombre de souris avec une parasitemia positive (T. congolense [1]; dose 1 mg/kg i.p., 3 mois): 0
- Nombre de souris avec une parasitemia positive (T. congolense [1]; dose 1 mg/kg i.p., 4 mois): 5
- IC50 (T. congolense [2]): 0,56 ± 0,05 ng/ml
- IC50 (T. congolense [2]; [5]): 0.00056 µg/mL
- IC50 (T. b. brucei): 9,24 ± 2,13 ng/ml
- IC50 (T. b. brucei; [6]): 0.00924 µg/mL

— patent publication EP2886535A1, “Novel veterinary isometamidium compositions and similar substances and uses thereof” (Ceva Sante Animale, priority 2013, dated 2015)
